# Results: patent publication EP1818063A1, “MEDICINE FOR TREATMENT OF DISEASE CAUSED BY HYPERSTIMULATORY CYTOTOXICITY AND THERAPEUTIC METHOD” (Japan Science and Technology Agency, priority 2004, dated 2006)
# Read-outs that look alike come from different tables or passages of the source.
# Key:
# Type in all cases: cell-based, mouse
# [1] = tested on: primary cultured cerebral cortical neurons; assay: Varicosity formation (neuronal swelling) during excitotoxic NMDA stimulation
# Procedure: (§1) In order to access effects of volume-sensitive Cl- channel blocker on neuronal swelling or necrosis caused by hyperexcitation, primary cultures of cerebral cortical neurons isolated from fetuses removed from mice on day 16 of pregnancy were used. The primary cultured cerebral cortical neurons were cultured in a 5% CO2 incubator at 37°C, using Dulbecco's medium supplemented with 10% fetal bovine serum, streptomycin, and penicillin. To visualize dendrites, the cultured cerebral cortical neurons were transfected with EGFP gene on day 3 of culture, using a […] phosphate method. As an excitotoxic stimulant, Earle's Balanced Salt Solution (EBSS; commercially available as GIBCO#14155-063) was used that contained 30 µM N-methyl-D-aspartate (NMDA) and 30 µM glycine, supplemented with 2 mM CaCl2 and 0.5 mM MgCl2. To confirm activation of volume-sensitive Cl- channel, an experiment was conducted using a perforated-vesicle patch-clamp technique. After forming a gigaohm seal on the membrane of the varicosities exposed to excitotoxic stimulation, recording electrodes were raised to record currents from a single varicosity patch membrane. The intracellular and extracellular solutions used for the patch-clamp experiment were composed of the following. Extracellular solution: 124 mM N-methyl-D-glucamine (NMDG), 124 mM HCl, 20 mM TEA-Cl, 4 mM MgCl2, 0.33 mM NaH2PO4, 0.5 mM EGTA, 10 mM 2-[4-(2-hydroxyethyl)-1-piperazinyl] ethanesulfonic acid (HEPES), 2 mM 4-aminopyridine (4-AP), 5.5 mM glucose, 270mOsm, pH7.4. Intracellular solution: 145 mM KCl, 10 mM HEPES, 1 mM EGTA, 1 mM MgCl2, 0.3 mg/ml nystatin, 300mOsm, pH 7.4.
# Neuronal swelling was assessed as a proportion of varicosity-forming cells in the total number of neurons. After 20-minute excitotoxic stimulation, the cells were fixed with 4% paraformaldehyde, and the number of cells in each cell group was counted with a fluorescent microscope.
# Figure 7A is micrographs showing excitotoxic swelling of neurons induced by glutamate receptor agonist (30 µM NMDA). Primary cultured cerebral cortical neurons were visualized through EGFP expression. […] Figure 7B represents inhibitory action of Cl- channel blocker on varicosity formation. In the Figure, asterisk indicates a level of significant difference (p<0.05) from data on NMDA (before application of blocker).
# [2] = tested on: EGFP-transfected primary cultured cerebral cortical neurons; assay: Recovery from varicosities after removal of excitotoxic (NMDA) stimulation; settings: 60 minutes after 20-minute 30 µM NMDA stimulation; concentration not given
# Procedure: Primary cultured cerebral cortical neurons were transfected on day 3 of culture with a plasmid containing green fluorescent protein EGFP gene, using a […] phosphate method. […] Cells on day 2-6 of transfection were used for the experiment.
# The cells were subjected to an excitotoxic stimulant by 20-minute exposure to low-magnesium HEPES buffer (composition: 142 mM NaCl, 2.5 mM KCl, 0.5 mM EGTA, 0.5 mM MgCl2, 0.33 mM NaH2PO4, 10 mM HEPES, 5.5 mM glucose, 0.03 mM glycine) containing NMDA (30 µM). After stimulation, the cells were washed three times with normal HEPES buffer (composition: 140 mM NaCl, 2.5 mM KCl, 2 mM CaCl2, 2 mM MgCl2, 10 mM HEPES, 5.5 mM glucose, 35 mM mannitol). The cells were then incubated at 37°C in the same buffer, and fixed with 4% paraformaldehyde at different time points (0, 15, 30, 60 min).
# As in Example 4, EGFP-transfected primary cultured cerebral cortical neurons were used. According to the procedure of Example 4, the cells were subjected to excitotoxic stimulation, and incubated with normal HEPES buffer supplemented with various kinds of medicines. After 60 minutes, the cells were fixed with 4% paraformaldehyde, and the number of varicosity-bearing cells was counted with a fluorescent microscope as a percentage of the total number of counted neurons.
# [3] = tested on: primary cultured cerebral cortical neurons; assay: Necrotic neuronal cell death by LDH release after NMDA exposure
# Procedure: as §1
# (§2) Necrotic neuronal cell death was assessed by PI staining in which the nuclei are stained with a propidium iodide (PI) dye that enters the cells through damaged portions of the plasma membrane, or by measuring the level of extracellular lactate dehydrogenase (LDH) released from dead cells.
# [4] = tested on: volume-sensitive Cl- channel; assay: Whole-cell patch-clamp of current activated by hyposmotic stimulation; settings: primary cultured cerebral cortical neurons
# Procedure: The cerebral cortex of fetuses removed from mice on day 16 of pregnancy was plated on cover-glass slips after digestion with papain. To prevent growth of glias and other proliferative cells, the cultures were supplemented with AraC (4 µM) 2 days after plating and a neuron-rich (>95%) culture system was prepared. A whole-cell patch-clamp technique was applied to primary cultures of cerebral cortical neurons (5-8 days after incubation). The intracellular and extracellular solutions used for the patch-clamp experiments were composed of the following. Intracellular solution (300mOsm, pH 7.4): 24 mM NMDG-C1, 100 mM NMDG-aspartate, 2 mM MgCl2, 5 mM Na2ATP, 0.3 mMNa3 GTP, 1 mM EGTA, 10 mM HEPES. […] Osmolality was adjusted by adding mannitol. Current activation was observed overtime by applying a potential of ±60 mV (500 ms duration, every 15 s) from a holding potential of -40 mV. To observe current kinetics, step pulses from -100 mV to +100 mV in 20 mV increments were applied (0.5 s duration) and current response was observed. The recordings were plotted in a current-voltage curve.
# [5] = tested on: volume-sensitive Cl- channel; assay: Perforated-vesicle patch-clamp of single-channel currents on the varicosity membrane
# Procedure: In order to access effects of volume-sensitive Cl- channel blocker on neuronal swelling or necrosis caused by hyperexcitation, primary cultures of cerebral cortical neurons isolated from fetuses removed from mice on day 16 of pregnancy were used. The primary cultured cerebral cortical neurons were cultured in a 5% CO2 incubator at 37°C, using Dulbecco's medium supplemented with 10% fetal bovine serum, streptomycin, and penicillin. To visualize dendrites, the cultured cerebral cortical neurons were transfected with EGFP gene on day 3 of culture, using a […] phosphate method. As an excitotoxic stimulant, Earle's Balanced Salt Solution (EBSS; commercially available as GIBCO#14155-063) was used that contained 30 µM N-methyl-D-aspartate (NMDA) and 30 µM glycine, supplemented with 2 mM CaCl2 and 0.5 mM MgCl2. To confirm activation of volume-sensitive Cl- channel, an experiment was conducted using a perforated-vesicle patch-clamp technique. […]
# After forming a gigaohm seal on the membrane of varicosities formed by excitotoxic stimulation (Figure 8A), the recording electrodes were lifted up to excise a single varicosity, with which recordings of volume-sensitive Cl- currents were made (Figure 8B). […] These properties of the recorded currents coincided with those of the volume-sensitive Cl- channel.
# [6] = tested on: cerebral cortical neurons; assay: Volume regulation (recovery from swelling) under hypotonic conditions, soma cross-sectional area by two-photon microscopy; settings: 80 µM; hyposmotic solution 200mOsm
# Procedure: Primary cultured neurons on day 5-8 of culture were loaded with calcein-AM to visualize the cells, and X-Y cross sectional images were captured over time with a two-photon laser microscope. Cell size was assessed based on changes in cross sectional area of the soma. An area ratio at each time point was calculated and plotted on a graph, with the area at the start of experiment given as 1 (Figure 2B). The solution used for the experiment had the following composition: 90 mM NaCl, 2.5 mM KCl, 5 mM HEPES, 2 mM MgCl2, 2 mM CaCl2, and 10 mM glucose.
# [7] = tested on: primary cultured cerebral cortical neurons; assay: Necrotic neuronal cell death by PI staining after NMDA exposure
# Procedure: as §1, §2
# [8] = 40 µM co-applied with NMDA for 3 hours
# [9] = 100 µM during 20-minute 30 µM NMDA stimulation
# [10] = 100 µM co-applied with NMDA for 3 hours
compound,measurement,setting,value
O=C(O)c1cc([N+](=O)[O-])ccc1NCCCc1ccccc1 [NPPB],number of varicosity-forming neurons,[1]; 40 µM during 20-minute 30 µM NMDA stimulation,decreased significantly
same,Recovery from varicosities,[2],significantly inhibited
same,level of LDH release,[3]; [8],significantly inhibited
same,inhibition of current activated by hyposmotic stimulation,[4]; 80 µM,inhibited
same,single-channel events observed on the varicosity,"[5]; 80 µM, 3 minutes after application",blocked
same,blocking effect after removal,[5]; 3 minutes after removal of 80 µM,reversible
same,volume regulation,[6],inhibited
same,number of PI positive cells,[7]; [8],decreased significantly
CN1CCc2cc3c(cc2[C@H]1[C@@H]1OC(=O)c2c1ccc1c2OCO1)OCO3 [bicuculline],number of varicosity-forming neurons,[1],no significant inhibiting effects
same,level of LDH release,[3],No inhibiting effects
same,number of PI positive cells,[7],no significant inhibiting effects
picrotoxin,number of varicosity-forming neurons,[1]; [9],no significant inhibiting effects
same,level of LDH release,[3]; [10],No inhibiting effects
same,number of PI positive cells,[7]; [10],no significant inhibiting effects
O=S(=O)(O)c1cc(N=C=S)ccc1C=Cc1ccc(N=C=S)cc1S(=O)(=O)O [DIDS],inhibition of current activated by hyposmotic stimulation,[4]; 400 µM,inhibited
O=C(CCc1ccc(O)cc1)c1c(O)cc(O)cc1O [phloretin],number of varicosity-forming neurons,[1]; [9],decreased significantly
same,Recovery from varicosities,[2],significantly inhibited
same,level of LDH release,[3]; [10],significantly inhibited
same,inhibition of current activated by hyposmotic stimulation,[4]; 100 µM,inhibited
same,number of PI positive cells,[7]; [10],decreased significantly
